Results as given in US7659293B2, “α-Amino-N-hydroxy-acetamide derivatives” (Novartis AG, priority 2001, dated 2010).
Counter-ions that a name gives are not always drawn.

Target: T1, MT1-MMP (Homo sapiens, UniProt P50281)
T1 construct: initiator Met (ATG start codon from NdeI site) (N); made in house
Test: MT1-MMP fluorogenic substrate inhibition assay
Assay type: biochemical
Conditions: mean ± SEM of three independent experiments
Description: The inhibitory activities of compounds of formula I on MT1-MMP, MMP1 (collagenase 1) and MMP2 (gelatinase A) can be determined as follows:
Stock solutions of substrate (MCA-Pro-Leu-Gly-Leu-Dpa-Ala-Arg-NH2 (SEQ ID NO: 1), C. G. Knight, et al, FEBS lett., 296, 263-266, (1992)), are prepared in 100% DMSO at a concentration 1.0 mM.
Stock solutions of inhibitors are prepared in 100% DMSO. The inhibitor is diluted into the assays from a solution in 100% DMSO, and controls substitute an equal volume of DMSO so that the final DMSO concentration from inhibitor and substrate dilutions in all assays is 6.0%. Assays are performed in assay buffer (150 mM NaCl, 10 mM CaCl2, 50 mM Tris-Cl pH7.5, 0.05% Brij-35) containing 6.0% DMSO once the substrate and inhibitor are diluted into it. […] The fluorescence changes are monitored using an excitation wavelength of 320 nm and an emission wavelength of 340 nm. […] The reaction mixture is preincubated with the inhibitor for 30 min, the reaction is started by the addition of MMP enzyme and the fluorescence intensity is measured for 10 min. […]
Expression and Purification: The subcloned CD-MT1-MMP is used to transfect E. coli strain BL21[DE3] (Hanahan, D. J. Mol. Biol. 1983; 166(4):557-80) and expressed as insoluble inclusion body materials. […] Fractions of 1 ml are collected and […] aliquots are analyzed by immunoblotting. […]

- IC50: 4.67 ± 0.17 nM
Structure (SMILES): CN(C)c1ccc(CN(CC(=O)NO)S(=O)(=O)c2ccc(OCC3CC3)cc2)cc1 [Example 2, 2-[(4-Cyclopropylmethoxy-benzenesulfonyl)-(4-dimethylamino-benzyl-amino]-N-hydroxy-acetamide HCl salt]
